The test system of the first assay is m-IMCD3 cells. The experiment in a line: Inhibition of PGE2-stimulated in vitro cyst formation in m-IMCD3 cells. It is filed as cell-based, mouse. The settings on record: Mus musculus, mIMCD3, 144 h, 3 μM; mean cyst area, 100% for (DMSO + PGE2) and 0% for DMSO control; 6 days of culture; read-out: % Cyst area after incubation with 3 μM test compound. The procedure, abridged: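 m-IMCD3 cells embedded in collagen I/Matrigel 3D culture; 18–24 h after plating, compound (0.1% DMSO final) plus PGE2 (100 nM final) added, replenished after 2 or 3 days. After 6 days, z-stack imaging gave mean cyst area, normalized to DMSO+PGE2 (100%) and DMSO (0%).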
Turning to `CC(C)(C)CC(=O)N1CCc2nc(N3CCNCC3)sc2C1` [Example 274, 3,3-dimethyl-1-(2-(piperazin-1-yl)-6,7-dihydrothiazolo[5,4-c]pyridin-5(4H)-yl) butan-1-one], the activity at 3 µM came to 14%.

For the compound `O=C(COc1ccccc1OC(F)(F)F)N1CCc2nc(N3C4CCC3CNC4)sc2C1` [Example 164, 1-(2-(3,8-diazabicyclo[3.2.1]octan-8-yl)-6,7-dihydrothiazolo[5,4-c]pyridin-5(4H)-yl)-2-(2-(trifluoromethoxy)phenoxy)ethan-1-one], the activity at 3 µM is -7%.

Consider `O=C(c1cc2ccccc2[nH]1)N1CCc2nc(N3C4CCC3CNC4)sc2C1` [Example 188, (2-(3,8-diazabicyclo[3.2.1]octan-8-yl)-6,7-dihydrothiazolo[5,4-c]pyridin-5(4H)-yl)(1H-indol-2-yl)methanone], for which the activity at 3 µM is 3%.

Consider `O=C(Cc1ccc(F)nc1)N1CCc2nc(N3C4CCC3CNC4)sc2C1` [Example 165, 1-(2-(3,8-diazabicyclo[3.2.1]octan-8-yl)-6,7-dihydrothiazolo[5,4-c]pyridin-5(4H)-yl)-2-(6-fluoropyridin-3-yl)ethan-1-one], for which the activity at 3 µM was found to be 2%.

Turning to `O=C(C1COc2ccccc2O1)N1CCc2nc(N3C4CCC3CNC4)sc2C1` (stereo not shown) [Example 180, (2-(3,8-diazabicyclo[3.2.1]octan-8-yl)-6,7-dihydrothiazolo[5,4-c]pyridin-5(4H)-yl)(2,3-dihydrobenzo[b][1,4]dioxin-2-yl)methanone], the activity at 3 µM was 2%.

Regarding `O=C(C1COc2ccccc2C1)N1CCc2nc(N3C4CCC3CNC4)sc2C1` (stereo not shown) [Example 182, (2-(3,8-diazabicyclo[3.2.1]octan-8-yl)-6,7-dihydrothiazolo[5,4-c]pyridin-5(4H)-yl)(chroman-3-yl)methanone], the activity at 3 µM is 1%.

The assay is the same for the next values; noted with them: Mus musculus, mIMCD3, 144 h, 10 μM; mean cyst area, 100% for (DMSO + PGE2) and 0% for DMSO control; 6 days of culture; read-out: % Cyst area after incubation with 10 μM test compound.
`O=C(N1CCc2nc(N3C4CCC3CNC4)sc2C1)C(F)(F)C1CCCC1` [Example 24, 1-(2-(3,8-diazabicyclo[3.2.1]octan-8-yl)-6,7-dihydrothiazolo[5,4-c]pyridin-5(4H)-yl)-2-cyclopentyl-2,2-difluoroethan-1-one]: the activity at 10 µM was 0%.

With `O=C(CC1CCOCC1)N1CCc2nc(N3C4CCC3CNC4)sc2C1` [Example 3, 1-(2-(3,8-diazabicyclo[3.2.1]octan-8-yl)-6,7-dihydrothiazolo[5,4-c]pyridin-5(4H)-yl)-2-(tetrahydro-2H-pyran-4-yl)ethan-1-one], the activity at 10 µM turned out to be 13%.

For the compound `O=C(CC1CCCC1)N1CCc2nc(N3CCNC[C@H]3CO)sc2C1` [Example 284, (S)-2-cyclopentyl-1-(2-(2-(hydroxymethyl)piperazin-1-yl)-6,7-dihydrothiazolo[5,4-c]pyridin-5(4H)-yl)ethan-1-one], the activity at 10 µM came out at 19%.

Consider `CN1CC2CCC(C1)N2c1nc2c(s1)CN(C(=O)CC1CCCC1)CC2` [Example 75, 2-cyclopentyl-1-(2-(3-methyl-3,8-diazabicyclo[3.2.1]octan-8-yl)-6,7-dihydrothiazolo[5,4-c]pyridin-5(4H)-yl)ethan-1-one], for which the activity at 10 µM was -4%.

Consider `Cc1cc(CC(=O)N2CCc3nc(N4C5CCC4CNC5)sc3C2)cc(C)n1` [Example 153, 1-(2-(3,8-diazabicyclo[3.2.1]octan-8-yl)-6,7-dihydrothiazolo[5,4-c]pyridin-5(4H)-yl)-2-(2,6-dimethylpyridin-4-yl)ethan-1-one], for which the activity at 10 µM stood at 31%.

On to `O=C(CC1CCC2(CC1)COC2)N1CCc2nc(N3C4CCC3CNC4)sc2C1` [Example 155, 1-(2-(3,8-diazabicyclo[3.2.1]octan-8-yl)-6,7-dihydrothiazolo[5,4-c]pyridin-5(4H)-yl)-2-(2-oxaspiro[3.5]nonan-7-yl)ethan-1-one], for which the activity at 10 µM is -3%.

For the compound `CC(C)[C@@H](C)C(=O)N1CCc2nc(N3C4CCC3CNC4)sc2C1` [Example 19, (2R)-1-(2-(3,8-diazabicyclo[3.2.1]octan-8-yl)-6,7-dihydrothiazolo[5,4-c]pyridin-5(4H)-yl)-2,3-dimethylbutan-1-one], the activity at 10 µM is -2%.
